The text below walks through data of US6887895B2, “Pseudolaric acid-B derivatives, their preparation and pharmaceutical compositions” (Shanghai Institute of Materia Medica Chinese Academy of …, priority 2001, dated 2005).

In general, IC50 refers to the concentration that gives 50% inhibition.

The test system of data set [1] is P388 murin leukemia cells. In words: P388 proliferation assay (MTT). Type of data set: cell-based, murine. How it is done: (§1) To evaluate the anti-tumor pharmacological activity of the compounds of the invention, the anti-proliferation activity thereof was assayed using P388 murin leukemia cells and A549 human lung adenocarcinoma cells; the anti-angiogenic activity, a newer target of antitumor, was measured using human microvascular endothelial cells (HMEC). Pseudolarix acid-B and hydroxycamptothecin were used as reference compounds in the evaluation.
(§2) P388, A549 and HMEC Proliferation Assay
(§3) Materials: DMEM was purchased from Gibco (Life Technologies, Grand Island, N.Y., USA). Sulforodamine B (SRB) and MTT were obtained from Sigma; TCA […] and Tris base buffer were analytical pure products made in China.
MTT assay: P388 cells were seeded at a density of 1.5×10^5/ml into wells of 96-well plates and incubated with complete medium. After 24 hr, serial dilutions of the compounds (10 μL) prepared in medium were added. Experiments at each concentration of compounds were performed in triplicate with controls of cell-free withered wells and cell-free withered wells at corresponding concentration of compounds, if it is colored. The plates were incubated at 37° C., 5% CO2, for 48 hr. Then, 20 μL aliquots of MTT (Sigma) solution (5 mg/mL) in saline were added directly to all the appropriate wells. The culture was continuously incubated for 4 hr. Then 50 μL “triplex solution” (10% SDS-5% isobutanol- 0.01M HCl) was added into each well. After the plates were incubated at 37° C. overnight, the values of absorbance at 520 nm were measured by using a plate reader (VERSA Max, Molecular Devices).
(§4) The rate of inhibition on the growth of cancer cells was calculated by the formula: Rate of growth inhibition=[1−(A520 treated/A520 control)]×100%
(§5) The result was also expressed as IC50 (the drug concentration reducing by 50% the absorbance in treated cells, with respect to untreated cells) that was calculated by Logit method. The mean IC50 was determined according to the data from three independent tests.

Another data set relates to Trichophyton rubrum. In words: Antifungal screening, agar diluting method. Type of data set: cell-based. The source says:
Screening on Antifungal Activities
The action on Trichophyton rubrum was observed using agar diluting method. The drug concentration in the Petridish on which no growth of fungus observed is the minimun inhibition concentration.

Data set [2] can be described thus: Body weight of Sarcoma 180-bearing mice under treatment. Type of data set: in vivo, Kunming strain female mice. How it is done: (§6) 30 Kunming strain female mice weighing 18-22 g were used. Suspensions of well grown Sarcoma 180 cell were implanted subcutaneously into the right axilla region of the mice, about 4.5-5×10^6 cells/mouse. The animals were grouped randomly 24 hours after the implantation. Daily treatment with drugs or normal saline commenced 1 day after implantation of S-180 cells. Mice were administered by i.p. injection with vehicle or compounds once a day for consecutive 6 days. All the mice were euthanized after the last administration. The mice and the tumors were weighed. The average weights of tumors of each group were calculated and rate of inhibition of tumor growth in vivo was calculated using the following formula: [formula]

The subject of the next data set is Candida albicans. In words: Antifungal screening, liquid diluting method. Type of data set: cell-based. From the text:
Screening on Antifungal Activities The action on Candida albicans was observed using liquid diluting method. The drug concentration in the tube in which no growth of fungus observed is the minimun inhibition concentration.

A further data set relates to Sarcoma 180 cell. In words: Sarcoma 180 tumor growth inhibition in mice. Type of data set: in vivo, Kunming strain female mice. The note with it: for Tumor weight: S-180 mice; for Inhibition %: tumor growth vs control. The method, then:
as §6

For data set [3], the system named is A549 human lung adenocarcinoma cells. In words: A549 proliferation assay (SRB). Type of data set: cell-based. How it is done: as §1, §2, §3
(§7) SRB assay: Tumor (A549 and HMEC) cells in logarithmic growth were plated in DMEM media in the wells of a 96-well plate (5×10^3 cells/90 μL/well) and serial dilutions of the compounds (10 μL) prepared in medium were added. Experiments at each concentration of compounds were performed in triplicate with controls of normal saline and cell-free withered wells. The plates were incubated at 37° C., 5% CO2, for 72 hr. The media were decanted and cells were fixed with cold (4° C.) 10% trichloroacetic acid, followed by incubation at 4° C. for 1 hr. Then plates were washed with deionised water five times and allowed to air dry and stained by addition of 100 μL/well SRB solution [0.4% SRB (Sigma) in 1% acetic acid (W/V)] for 15 min. Following staining, plates were quickly washed five times with 1% acetic acid to remove unbound dye, and allowed to air dry. Bound dye was solubilized with Tris buffer (pH 10.5) prior to reading plates. The OD was measured with a multiwell spectrophotometer (VERSAmax, Molecular Devices, USA) at a wavelength of 520 nm.
as §4, §5

In data set [4] the test system is human microvascular endothelial cells (HMEC). In words: HMEC proliferation assay (SRB), anti-angiogenic activity. Type of data set: cell-based. How it is done:
as §1, §2, §3, §7, §4
The result was also expressed as IC50 (the drug concentration reducing by 50% the absorbance in treated cells, with respect to untreated cells) that was calculated by Logit method. […]

Setting [5] is: Mus musculus, P388 cells, MTT, 48 hr, read-out: IC50.
Where [6] appears, read: 5 mg/kg i.p. once a day for 6 days.
The mark [7] stands for this setting: 10 mg/kg i.p. once a day for 6 days.
The mark [8] stands for this setting: 15 mg/kg i.p. once a day for 6 days.
Where [9] appears, read: Homo sapiens, A549 cells, SRB, 72 hr, read-out: IC50.

Molecules are shown by their SMILES. In brackets after ≈: the same amount, converted by molar mass. Like-named read-outs stand apart in the source and are kept apart here.

Regarding `CC(=O)O[C@@]12CCC(C(=O)OCc3ccco3)=CC[C@@]13CC[C@@H]2C(C)(/C=C/C=C(\C)C(=O)O)OC3=O` (stereo partly shown) [PEX-25Y], the half-maximal inhibitory concentration (IC50) in data set [1] (setting [5]) was below 0.1 nM; in data set [3] (setting [9]), 55 nM; in data set [4] (Homo sapiens, HMEC cells, SRB, 72 hr, read-out: IC50) it was 1 nM. Besides, the MIC in the data set with Trichophyton rubrum (Trichophyton rubrum, read-out: MIC (μg/ml) (Trichophyton rubrum)) came to 12.5 µg/mL (≈ 25.1 µM); in the data set on Candida albicans (Candida albicans, read-out: MIC (μg/ml) (Candida albicans)) it was 6.25 µg/mL (≈ 12.5 µM). The “Body weight (g) At last” value was 21.1 g in data set [2] (5 mg/kg i.p. once a day for 6 days, beginning 20.4 g); 19.7 g in data set [2] (10 mg/kg i.p. once a day for 6 days, beginning 20.4 g); 21.2 g in data set [2] (15 mg/kg i.p. once a day for 6 days, beginning 20.5 g). The “Tumor weight” value was 0.30 ± 0.23 g in the data set with Sarcoma 180 cell (setting [6]), 0.26 ± 0.11 g with Sarcoma 180 cell (setting [7]) and 0.28 ± 0.13 g in the data set on Sarcoma 180 cell (setting [8]). Besides, the Inhibition % with Sarcoma 180 cell (setting [6]) is 64.3%; with Sarcoma 180 cell (setting [7]), 69.0%; in the data set on Sarcoma 180 cell (setting [8]) it was 66.7%.
In data set [4] (Homo sapiens, HMEC, 72 h), `CC[C@@]1(O)C(=O)OCc2c1cc1n(c2=O)Cc2cc3cc(O)ccc3nc2-1` [hydroxycamptothecin] returned an IC50 of 470 nM.
For `COC(=O)C1=CC[C@]23CC[C@H](C(C)(/C=C/C=C(\C)C(=O)Nc4cccc(O)c4)OC2=O)[C@]3(OC(C)=O)CC1` (stereo partly shown) [PEX-15Y], the half-maximal inhibitory concentration (IC50) in data set [3] (setting [9]) worked out at 150 nM.
Consider `COC(=O)C1=CC[C@@]23CC[C@@H]([C@@](C)(/C=C/C=C(\C)C(=O)O)OC2=O)[C@@]3(OC(C)=O)CC1` [Pseudolarix acid-B, pseudolaric acid B, reference compound], for which the IC50 in data set [1] (P388 cells, MTT, 48 hr, read-out: IC50) was 0.83 nM; in data set [3] (A549 cells, SRB, 72 hr, read-out: IC50) it was 28 nM; in data set [4] (HMEC cells, SRB, 72 hr, read-out: IC50), 80 nM. For the same compound, the “MIC (μg/ml) (Trichophyton rubrum)” value in the data set with Trichophyton rubrum turned out to be 50.0 µg/mL (≈ 116 µM). The “MIC (μg/ml) (Candida albicans)” value in the data set with Candida albicans turned out to be 12.5 µg/mL (≈ 28.9 µM).
With `COC(=O)C1=CC[C@]23CC[C@H](C(C)(/C=C/C=C(\C)C(=O)O)OC2=O)[C@]3(OC(=O)Cc2ccc(Cl)cc2)CC1` (stereo partly shown) [PEX-24Y], the IC50 is 0.26 nM in data set [1] (setting [5]) and 69 nM in data set [3] (setting [9]).
Turning to `CC(=O)O[C@@]12CCC(C(=O)OCC3CCCCC3)=CC[C@@]13CC[C@@H]2C(C)(/C=C/C=C(\C)C(=O)O)OC3=O` (stereo partly shown) [PEX-31Y], the concentration for half-maximal inhibition (IC50) is below 0.1 nM in data set [1] (Mus musculus, P388, 48 h) and below 0.1 nM in data set [3] (Homo sapiens, A549, 72 h).
